This is an account of results in publication PMC11513893, “Discovery of Oral Degraders of the ROS1 Fusion Protein with Potent Activity against Secondary Resistance Mutations” (Journal of Medicinal Chemistry, 2024).

Where two headings read alike, the source gives them in different places.

Data set [1] concerns Ba/F3 CD74-ROS1 non mutant. The data set is described as follows: Antiproliferation assay (Alamar Blue, 72 h). It counts as cell-based, mouse. Conditions: Mus musculus, BaF3, 72 h, Ba/F3 cells, cell growth inhibition.
A further data set concerns Ba/F3 ROS1-G2032R. The data set is described as follows: Antiproliferation assay. The class given is cell-based, mouse. As to conditions: Mus musculus, BaF3; Ba/F3 cells, cell growth inhibition, 72 h.
Another data set deals with ROS1. Put plainly: ROS1 degradation in Ba/F3 cells (WES immunoblotting). Conditions: for DC50: concentration needed to reduce ROS1 protein by 50%, Ba/F3 cells; for Dmax (%) (ROS1): maximal degradation of ROS1 in Ba/F3 cells. It counts as cell-based. The method in brief: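 ROS1 and phospho-ROS1 (Tyr2274/2334) in Ba/F3 lysates quantified by capillary immunoassay (WES) with chemiluminescent detection, duplicate experiments. Levels expressed as AUC of the chemiluminescence peak.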

Another data set in a line: Log P measurement. The class given is physicochemical. An excerpt:
An important physicochemical property for a PROTAC molecule is its lipophilicity that largely dictates its pharmaceutical performance such as absorption, permeability, and distribution.

A short description of data set [2]: Metabolic stability in rat microsomes. The class given is in vitro ADME. As to conditions: rat, pooled rat microsomes, pH 7.4, 250 nM compound, NADPH, 37 °C. The method, then:
(§1) Pooled human and rat microsomes were prepared and stored at −80 °C prior to use. A master-mix containing microsome, phosphate buffer, and test compound (9 series) solution was made as follows: (1) 3 μL of microsome (20 mg/mL) was diluted with mixed 30 μL of potassium phosphate buffer (pH 7.4; 10×) and 246 μL of water; (2) 3 μL of 25 μM drug solution was added to the microsome; (3) the master solution was prewarmed at 37 °C for 5 min. NADPH solution A (15 μL) and NADPH solution B (3 μL) from Promega were added to the above-mentioned master solution to initiate the reaction. The final concentration of 9 compounds in the reaction system was 250 nM. An aliquot of 20 μL was pipetted from the reaction solution and stopped by the addition of 180 μL of cold MeCN containing 25 ng of Tamoxifen-(N,N-dimethyl-13C2)-15N as an internal standard at the designated time points (0, 5, 15, 30, 45, and 60 min). The incubation solution was vortexed-mixed (800 rpm/10 min) and centrifuged at 3500 rpm for 10 min to precipitate proteins. The supernatant was collected and used for the LC/MS/MS analysis. The natural log of the remaining percentage of the test compound was plotted against time and the gradient of the line was determined.

Data set [3] in a line: Metabolic stability in human microsomes. Conditions: human, pooled human microsomes, pH 7.4, 250 nM compound, NADPH, 37 °C. The class given is in vitro ADME. The protocol: as §1
Data set [4] can be described thus: Pharmacokinetics study in Sprague–Dawley rats. It counts as in vivo. As to conditions: Sprague-Dawley [Crl: CD (SD)], plasma, rat. The method, then:
Four to 6 weeks old Sprague–Dawley rats [Crl: CD (SD)] (SPF/VAF) were purchased from Charles River (Wilmington MA). Animals were quarantined/acclimated for 2–6 weeks prior to dose initiation. Sprague–Dawley rats were given oral administration of test compounds (20% PG, 5% Solutol, and 75% of 20% HP-β-CD in water) at different dose levels. After treatment with the compounds, whole blood was collected from each study animal by puncture of the tail vein (0.4 mL of whole blood from rats) into tubes containing K2EDTA at each time point. The plasma samples were divided into 2 aliquots (approximately equal in volume) and stored frozen at −75 ± 15 °C within 2 h of the collection until analysis.
The stock solution of the test compound (0.01 M) in DMSO was prepared and stored at −20 ± 5 °C. The desired serial concentrations of working reference analyte solutions were achieved by diluting a stock analyte solution with 50% acetonitrile (0.1% formic acid) in water solution. The bioanalytical LC–MS/MS method was developed for quantitative determination of each test compound in Sprague–Dawley rat plasma with acceptable selectivity, sensitivity, calibration curve, precision, and accuracy. The analytical method is applicable for the determination of test compounds in Sprague–Dawley rat plasma with a lower limit of quantification of 10.0 ng/mL and an upper limit of quantification of 5000 ng/mL. Five microliters of diluted supernatant was injected into the LC–MS/MS system (TSQ Quantis) and a SynergiTM 4 μm Fusion-RP 80 Å (50 × 2 mm) column using gradient elution and a Triple Quad mass spectrometer) for quantitative analysis. The mobile phases used were 0.1% formic acid in deionized water and 0.1% formic acid in acetonitrile. The pharmacokinetic parameters T1/2 (the biological half-life), Cmax (maximal concentration), Tmax (time at which Cmax is observed), and AUC (area under the plasma concentration–time curve) were calculated from the plasma concentration versus time data using WinNonlin (PhoenixTM, version 8.1, Mountain View, CA, USA).

Turning to `COc1cc(N2CCN(CC3CCN(c4ccc5c(c4)C(=O)N(C4CCC(=O)NC4=O)C5=O)CC3)CC2)ccc1Nc1ncc(Cl)c(Nc2ccccc2P(C)(C)=O)n1` (centres unmarked) [9c, 5-(4-((4-(4-((5-Chloro-4-((2-(dimethylphosphoryl)phenyl)amino)pyrimidin-2-yl)amino)-3-methoxyphenyl)piperazin-1-yl)methyl)piperidin-1-yl)-2-(2,6-dioxopiperidin-3-yl)isoindoline-1,3-dione], the IC50 in data set [1] came to 19 ± 8 nM; in the data set with Ba/F3 ROS1-G2032R, 236 ± 28 nM. In addition, the DC50 with ROS1 is 22 nM. Further, in the data set with ROS1, the “Dmax (%) (ROS1)” value was found to be 95%. In “Log P measurement”, this compound gave a logP of 2.35. Also, the microsomal CLint at 1 h, 0.25 µM amounted to 77 µL/min/mg in data set [2] and 87 µL/min/mg in data set [3]. For the same compound, the half-life at 1 h, 0.25 µM came to 0.3 h in data set [2] (read-out: metabolic stability in rat microsomes T1/2) and 0.663 h in data set [3] (read-out: metabolic stability in human microsomes T1/2). For the same compound, the AUC in data set [4] (2 mg/kg iv, read-out: AUC (iv)) turned out to be 29400 ng·h/mL; in data set [4] (10 mg/kg po, read-out: AUC (po)), 31700 ng·h/mL. The highest concentration (Cmax) at 24 h in data set [4] (10 mg/kg po) came out at 2340 ng/mL. In addition, the half-life in data set [4] (10 mg/kg po) is 6.81 h. In addition, the bioavailability in data set [4] (10 mg/kg po vs 2 mg/kg iv) came to 21.6%. For the same compound, in data set [4] (10 mg/kg po, read-out: Tmax), the Tmax came to 3 h.
The compound `COc1cc(N2CCC(N3CCN(CC4CCN(c5ccc(C(=O)NC6CCC(=O)NC6=O)cc5)CC4)CC3)CC2)ccc1Nc1ncc(Cl)c(Nc2ccccc2P(C)(C)=O)n1` (centres unmarked) [9r, 4-(4-((4-(1-(4-((5-Chloro-4-((2-(dimethylphosphoryl)phenyl)amino)pyrimidin-2-yl)amino)-3-methoxyphenyl)piperidin-4-yl)piperazin-1-yl)methyl)piperidin-1-yl)-N-(2,6-dioxopiperidin-3-yl)benzamide] registered an IC50 in data set [1] of 120 ± 39 nM. The IC50 in the data set on Ba/F3 ROS1-G2032R was above 10000 nM. For the same compound, in the data set with ROS1, half-maximal degradation (DC50) was put at 123 nM and the “Dmax (%) (ROS1)” value is reported as 28%.
Turning to `COc1cc(N2CCC(N3CCN(C(=O)CN4CCN(c5ccc(NC6CCC(=O)NC6=O)cc5)CC4)CC3)CC2)ccc1Nc1ncc(Cl)c(Nc2ccccc2P(C)(C)=O)n1` (centres unmarked) [9s, 3-((4-(4-(2-(4-(1-(4-((5-Chloro-4-((2-(dimethylphosphoryl)phenyl)amino)pyrimidin-2-yl)amino)-3-methoxyphenyl)piperidin-4-yl)piperazin-1-yl)-2-oxoethyl)piperazin-1-yl)phenyl)amino)piperidine-2,6-dione], the IC50 in data set [1] is 75 ± 9 nM; in the data set with Ba/F3 ROS1-G2032R it was above 10000 nM. In the data set with ROS1, this compound returned a DC50 of 84 nM. Also, the “Dmax (%) (ROS1)” value in the data set with ROS1 stood at 40%.
For the compound `COc1cc(N2CCC(N3CCN(CCC4CCN(c5ccc(NC6CCC(=O)NC6=O)cc5)CC4)CC3)CC2)ccc1Nc1ncc(Cl)c(Nc2ccccc2P(C)(C)=O)n1` (centres unmarked) [9t, 3-((4-(4-(2-(4-(1-(4-((5-Chloro-4-((2-(dimethylphosphoryl)phenyl)amino)pyrimidin-2-yl)amino)-3-methoxyphenyl)piperidin-4-yl)piperazin-1-yl)ethyl)piperidin-1-yl)phenyl)amino)piperidine-2,6-dione], the IC50 was 61 ± 3 nM in data set [1] and above 10000 nM with Ba/F3 ROS1-G2032R. In addition, the DC50 in the data set with ROS1 turned out to be 56 nM. In the data set on ROS1, the “Dmax (%) (ROS1)” value is reported as 45%.
With `COc1cc(N2CCC(N3CCN(C(=O)CC4CCN(c5ccc(NC6CCC(=O)NC6=O)cc5)CC4)CC3)CC2)ccc1Nc1ncc(Cl)c(Nc2ccccc2P(C)(C)=O)n1` (centres unmarked) [9u, 3-((4-(4-(2-(4-(1-(4-((5-Chloro-4-((2-(dimethylphosphoryl)phenyl)amino)pyrimidin-2-yl)amino)-3-methoxyphenyl)piperidin-4-yl)piperazin-1-yl)-2-oxoethyl)piperidin-1-yl)phenyl)amino)piperidine-2,6-dione], the values for the IC50 (in data set [1]; with Ba/F3 ROS1-G2032R) were 82 ± 9 nM and above 10000 nM, respectively. This compound also gave a DC50 in the data set on ROS1 of 101 nM. Moreover, the “Dmax (%) (ROS1)” value in the data set on ROS1 was determined as 37%.
In data set [1], `COc1cc(N2CCC(N3CCN(C(=O)C4CCN(c5ccc(NC6CCC(=O)NC6=O)cc5)CC4)CC3)CC2)ccc1Nc1ncc(Cl)c(Nc2ccccc2P(C)(C)=O)n1` (centres unmarked) [9v, 3-((4-(4-(4-(1-(4-((5-Chloro-4-((2-(dimethylphosphoryl)phenyl)amino)pyrimidin-2-yl)amino)-3-methoxyphenyl)piperidin-4-yl)piperazine-1-carbonyl)piperidin-1-yl)phenyl)amino)piperidine-2,6-dione] displayed an IC50 of 63 ± 24 nM. Also, the IC50 in the data set on Ba/F3 ROS1-G2032R is above 10000 nM. Besides, in the data set with ROS1, it took 76 nM to reach half-maximal degradation (DC50) and the “Dmax (%) (ROS1)” value is recorded as 42%.

Broadly, the IC50 is the concentration that gives 50% inhibition. A low value points to inhibition by little substance. The DC50 is the concentration giving 50% degradation. Read a high DC50 as a less potent degrader. Usually logP stands for the decadic logarithm of the partition coefficient of the neutral form, usually between octanol and water. The low end stands for lower lipophilicity, the high end for higher lipophilicity. In general, microsomal CLint refers to the capacity of the preparation to metabolise the compound, expressed as a volume cleared per time. The term AUC denotes concentration integrated over time. As usually defined, the Cmax is the highest concentration seen after dosing. The bioavailability is dose-corrected exposure relative to a reference, in per cent. For orientation: Tmax means the time from dosing to the highest level.
